{"source": "patent US20160101148A1", "about": "“TREATMENT AND PREVENTION OF BACTERIAL SKIN INFECTIONS USING ORITAVANCIN” (priority 2013, published 2016)", "key": {"[1]": {"test_system": "S. aureus strains (14 mecC MRSA, 2 mecA MRSA, ATCC 29213 MSSA)", "assay": "In vitro time-kill assays at free peak and free trough concentrations", "type": "cell-based, Staphylococcus aureus", "protocol": "Viable cell count was determined by serial dilution plating, including the use of 25 g/L charcoal suspension to limit antibiotic carryover. […] Time-kill assays were repeated at least twice independently; results presented are from a representative experiment.\nDoubling dilution concentrations of comparator agents were likewise chosen to approximate their fCmax and fCmin levels in plasma when administered at approved dosages for complicated skin and skin structure infections, using pharmacokinetic data and protein binding values from their respective package inserts (DAP [Cubicin®]; LZD [Zyvox®]; VAN [Vancocin®]; Table 3)."}, "[2]": {"test_system": "S. aureus strains (14 mecC MRSA, 2 mecA MRSA, ATCC 29213 MSSA)", "assay": "Broth microdilution MIC determination", "type": "cell-based, Staphylococcus aureus", "details": "Staphylococcus aureus", "protocol": "The S. aureus (SA) strains used in this study were: ATCC 43300 (mecA methicillin-resistant SA [MRSA]); ATCC 33591 (mecA MRSA), ATCC 29213 (methicillin-susceptible SA; quality control strain) and 14 mecC MRSA obtained from the Staten Serum Institute (Copenhagen, Denmark).\nTests with oritavancin included polysorbate-80 (final test concentration of 0.002%) as described (CLSI 2012a; Arhin et al., 2008). Tests with daptomycin included CaCl2 at a concentration of 50 mg/L. MICs were read after 24 h incubation."}, "[3]": {"test_system": "ABSSSI caused by susceptible gram-positive bacteria, including MRSA", "assay": "SOLO I and SOLO II combined, efficacy", "type": "in vivo, human", "details": "SOLO I and SOLO II combined; for FDA primary endpoint: Cessation of spread, absence of fever, no rescue antibiotics / ≧20% reduction of lesion area / FDA primary endpoint: Cessation of spread, absence of fever, no rescue antibiotics, number of patients / ≧20% reduction of lesion area, number of patients: ECE; for EMA primary endpoint: Investigator-assessed clinical cure / EMA primary endpoint: Investigator-assessed clinical cure, number of patients: PTE", "text": "Complete results were obtained from a phase 3 clinical trial program of oritavancin (SOLO), which investigated the drug for the treatment of acute bacterial skin and skin structure infections (ABSSSI) caused by susceptible gram-positive bacteria, including methicillin-resistant Staphylococcus aureus (MRSA). SOLO I and SOLO II clinical trials were identical multicenter, double-blind, randomized clinical trials.\nIn microbiologically confirmed MRSA patients, efficacy was similar in both treatment groups; however, a higher proportion of MRSA-infected patients in the oritavancin group achieved the endpoint of greater than or equal to 20% reduction of lesion area at ECE (p value=0.032). Under the Special Protocol Assessment (SPA) agreed with the FDA, the protocols pre-specified that MRSA patients from the SOLO studies would be pooled for the evaluation of efficacy.\nThe combined SOLO studies represented 1,987 patients in an intent-to-treat population for evaluation of oritavancin in the treatment of ABSSSI in controlled clinical trials and assessed one of the largest subsets of patients with documented MRSA infection (405 patients)."}, "[4]": {"details": "confirmed MRSA, MicroITT, oritavancin n = 204, vancomycin n = 201"}, "[5]": {"details": "mITT, oritavancin n = 978, vancomycin n = 981"}}}
{"smiles": "CN[C@H](CC(C)C)C(=O)N[C@H]1C(=O)N[C@@H](CC(N)=O)C(=O)N[C@H]2C(=O)N[C@H]3C(=O)N[C@H](C(=O)N[C@H](C(=O)O)c4cc(O)cc(O)c4-c4cc3ccc4O)[C@H](O)c3ccc(c(Cl)c3)Oc3cc2cc(c3O[C@@H]2O[C@H](CO)[C@@H](O)[C@H](O)[C@H]2O[C@H]2C[C@](C)(N)[C@H](O)[C@H](C)O2)Oc2ccc(cc2Cl)[C@H]1O", "note": "[Vancomycin, vancomycin]", "values": [{"measurement": "Time to cidality (≧3 log decrease)", "setting": "[1]; 57147 (mecC), vancomycin ƒCmax 16 mg/L", "result": "6-24 h"}, {"measurement": "Time to cidality (≧3 log decrease)", "setting": "[1]; 57147 (mecC), vancomycin ƒCmin 4 mg/L", "result": "6-24 h"}, {"measurement": "Time to cidality (≧3 log decrease)", "setting": "[1]; 70611 (mecC), vancomycin ƒCmax 16 mg/L", "result": "6-24 h"}, {"measurement": "Time to cidality (≧3 log decrease)", "setting": "[1]; 70611 (mecC), vancomycin ƒCmin 4 mg/L", "result": "6-24 h"}, {"measurement": "Time to cidality (≧3 log decrease)", "setting": "[1]; 73348 (mecC), vancomycin ƒCmax 16 mg/L", "result": "6-24 h"}, {"measurement": "Time to cidality (≧3 log decrease)", "setting": "[1]; 73348 (mecC), vancomycin ƒCmin 4 mg/L", "result": "6-24 h"}, {"measurement": "Time to cidality (≧3 log decrease)", "setting": "[1]; 73415 (mecC), vancomycin ƒCmax 16 mg/L", "result": "6-24 h"}, {"measurement": "Time to cidality (≧3 log decrease)", "setting": "[1]; 73415 (mecC), vancomycin ƒCmin 4 mg/L", "result": "6-24 h"}, {"measurement": "Time to cidality (≧3 log decrease)", "setting": "[1]; 73617 (mecC), vancomycin ƒCmax 16 mg/L", "result": "6-24 h"}, {"measurement": "Time to cidality (≧3 log decrease)", "setting": "[1]; 73617 (mecC), vancomycin ƒCmin 4 mg/L", "result": "6-24 h"}, {"measurement": "Time to cidality (≧3 log decrease)", "setting": "[1]; 73829 (mecC), vancomycin ƒCmax 16 mg/L", "result": "6-24 h"}, {"measurement": "Time to cidality (≧3 log decrease)", "setting": "[1]; 73829 (mecC), vancomycin ƒCmin 4 mg/L", "result": "6-24 h"}, {"measurement": "Time to cidality (≧3 log decrease)", "setting": "[1]; 75814 (mecC), vancomycin ƒCmax 16 mg/L", "result": "6-24 h"}, {"measurement": "Time to cidality (≧3 log decrease)", "setting": "[1]; 75814 (mecC), vancomycin ƒCmin 4 mg/L", "result": "6-24 h"}, {"measurement": "Time to cidality (≧3 log decrease)", "setting": "[1]; 76918 (mecC), vancomycin ƒCmax 16 mg/L", "result": "6-24 h"}, {"measurement": "Time to cidality (≧3 log decrease)", "setting": "[1]; 76918 (mecC), vancomycin ƒCmin 4 mg/L", "result": "6-24 h"}, {"measurement": "Time to cidality (≧3 log decrease)", "setting": "[1]; 77431 (mecC), vancomycin ƒCmax 16 mg/L", "result": "6-24 h"}, {"measurement": "Time to cidality (≧3 log decrease)", "setting": "[1]; 77431 (mecC), vancomycin ƒCmin 4 mg/L", "result": "6-24 h"}, {"measurement": "Time to cidality (≧3 log decrease)", "setting": "[1]; 77601 (mecC), vancomycin ƒCmax 16 mg/L", "result": "6-24 h"}, {"measurement": "Time to cidality (≧3 log decrease)", "setting": "[1]; 77601 (mecC), vancomycin ƒCmin 4 mg/L", "result": "6-24 h"}, {"measurement": "Time to cidality (≧3 log decrease)", "setting": "[1]; 77950 (mecC), vancomycin ƒCmax 16 mg/L", "result": "6-24 h"}, {"measurement": "Time to cidality (≧3 log decrease)", "setting": "[1]; 77950 (mecC), vancomycin ƒCmin 4 mg/L", "result": "6-24 h"}, {"measurement": "Time to cidality (≧3 log decrease)", "setting": "[1]; 77964 (mecC), vancomycin ƒCmax 16 mg/L", "result": "6-24 h"}, {"measurement": "Time to cidality (≧3 log decrease)", "setting": "[1]; 77964 (mecC), vancomycin ƒCmin 4 mg/L", "result": "6-24 h"}, {"measurement": "Time to cidality (≧3 log decrease)", "setting": "[1]; 78085 (mecC), vancomycin ƒCmax 16 mg/L", "result": "6-24 h"}, {"measurement": "Time to cidality (≧3 log decrease)", "setting": "[1]; 78085 (mecC), vancomycin ƒCmin 4 mg/L", "result": "6-24 h"}, {"measurement": "Time to cidality (≧3 log decrease)", "setting": "[1]; 78651 (mecC), vancomycin ƒCmax 16 mg/L", "result": "6-24 h"}, {"measurement": "Time to cidality (≧3 log decrease)", "setting": "[1]; 78651 (mecC), vancomycin ƒCmin 4 mg/L", "result": "6-24 h"}, {"measurement": "Time to cidality (≧3 log decrease)", "setting": "[1]; ATCC 29213 (MSSA), vancomycin ƒCmax 16 mg/L", "result": "6-24 h"}, {"measurement": "Time to cidality (≧3 log decrease)", "setting": "[1]; ATCC 29213 (MSSA), vancomycin ƒCmin 4 mg/L", "result": "6-24 h"}, {"measurement": "Time to cidality (≧3 log decrease)", "setting": "[1]; ATCC 33591 (mecA), vancomycin ƒCmax 16 mg/L", "result": "6-24 h"}, {"measurement": "Time to cidality (≧3 log decrease)", "setting": "[1]; ATCC 33591 (mecA), vancomycin ƒCmin 4 mg/L", "result": "6-24 h"}, {"measurement": "Time to cidality (≧3 log decrease)", "setting": "[1]; ATCC 43300 (mecA), vancomycin ƒCmax 16 mg/L", "result": "6-24 h"}, {"measurement": "Time to cidality (≧3 log decrease)", "setting": "[1]; ATCC 43300 (mecA), vancomycin ƒCmin 4 mg/L", "result": "6-24 h"}, {"measurement": "Time to achieve 3 log kill", "setting": "[1]; all tested strains, both fCmin and fCmax", "result": "6 to 24", "unit": "hours"}, {"measurement": "MIC90", "setting": "[2]", "result": 1, "unit": "µg/mL"}, {"measurement": "MIC", "setting": "[2]; 57147 MRSA (mecC)", "result": 1, "unit": "µg/mL"}, {"measurement": "MIC", "setting": "[2]; 70611 MRSA (mecC)", "result": 1, "unit": "µg/mL"}, {"measurement": "MIC", "setting": "[2]; 73348 MRSA (mecC)", "result": 1, "unit": "µg/mL"}, {"measurement": "MIC", "setting": "[2]; 73415 MRSA (mecC)", "result": 1, "unit": "µg/mL"}, {"measurement": "MIC", "setting": "[2]; 73617 MRSA (mecC)", "result": 1, "unit": "µg/mL"}, {"measurement": "MIC", "setting": "[2]; 73829 MRSA (mecC)", "result": 1, "unit": "µg/mL"}, {"measurement": "MIC", "setting": "[2]; 75814 MRSA (mecC)", "result": 1, "unit": "µg/mL"}, {"measurement": "MIC", "setting": "[2]; 76918 MRSA (mecC)", "result": 1, "unit": "µg/mL"}, {"measurement": "MIC", "setting": "[2]; 77431 MRSA (mecC)", "result": 1, "unit": "µg/mL"}, {"measurement": "MIC", "setting": "[2]; 77601 MRSA (mecC)", "result": 1, "unit": "µg/mL"}, {"measurement": "MIC", "setting": "[2]; 77950 MRSA (mecC)", "result": 1, "unit": "µg/mL"}, {"measurement": "MIC", "setting": "[2]; 77964 MRSA (mecC)", "result": 1, "unit": "µg/mL"}, {"measurement": "MIC", "setting": "[2]; 78085 MRSA (mecC)", "result": 1, "unit": "µg/mL"}, {"measurement": "MIC", "setting": "[2]; 78651 MRSA (mecC)", "result": 1, "unit": "µg/mL"}, {"measurement": "MIC", "setting": "[2]; ATCC 29213 (MSSA)", "result": 1, "unit": "µg/mL"}, {"measurement": "MIC", "setting": "[2]; ATCC 29213 / ATCC 33591 / MRSA / MSSA, ATCC 33591 MRSA (mecA)", "result": 1, "unit": "µg/mL"}, {"measurement": "MIC", "setting": "[2]; ATCC 29213 / ATCC 43300 / MRSA / MSSA, ATCC 43300 MRSA (mecA)", "result": 1, "unit": "µg/mL"}, {"measurement": "MIC", "setting": "[2]; all strains tested", "result": 1, "unit": "µg/mL"}, {"measurement": "FDA primary endpoint: Cessation of spread, absence of fever, no rescue antibiotics", "setting": "[3]; confirmed MRSA, MicroITT", "result": 80.6, "unit": "%"}, {"measurement": "≧20% reduction of lesion area", "setting": "[3]; confirmed MRSA, MicroITT", "result": 87.1, "unit": "%"}, {"measurement": "FDA primary endpoint: Cessation of spread, absence of fever, no rescue antibiotics, number of patients", "setting": "[3]; [4]", "result": 162}, {"measurement": "≧20% reduction of lesion area, number of patients", "setting": "[3]; [4]", "result": 175}, {"measurement": "EMA primary endpoint: Investigator-assessed clinical cure", "setting": "[3]; confirmed MRSA, MicroITT", "result": 84.1, "unit": "%"}, {"measurement": "EMA primary endpoint: Investigator-assessed clinical cure, number of patients", "setting": "[3]; [4]", "result": 169}, {"measurement": "FDA primary endpoint: Cessation of spread, absence of fever, no rescue antibiotics", "setting": "[3]; mITT", "result": 80.9, "unit": "%"}, {"measurement": "≧20% reduction of lesion area", "setting": "[3]; mITT", "result": 84.1, "unit": "%"}, {"measurement": "FDA primary endpoint: Cessation of spread, absence of fever, no rescue antibiotics, number of patients", "setting": "[3]; [5]", "result": 794}, {"measurement": "≧20% reduction of lesion area, number of patients", "setting": "[3]; [5]", "result": 825}, {"measurement": "EMA primary endpoint: Investigator-assessed clinical cure", "setting": "[3]; mITT", "result": 80.2, "unit": "%"}, {"measurement": "EMA primary endpoint: Investigator-assessed clinical cure, number of patients", "setting": "[3]; [5]", "result": 787}]}
